Test results published in patent US9133204B2, “5-membered heterocyclic amides and related compounds” (H. Lundbeck A/S, priority 2007, dated 2015).

Target: T1, P2X7 receptor (Homo sapiens, UniProt Q99572)
T1 construct: host or cells: SH-SY5Y
T1 sequence (Q99572 1-595): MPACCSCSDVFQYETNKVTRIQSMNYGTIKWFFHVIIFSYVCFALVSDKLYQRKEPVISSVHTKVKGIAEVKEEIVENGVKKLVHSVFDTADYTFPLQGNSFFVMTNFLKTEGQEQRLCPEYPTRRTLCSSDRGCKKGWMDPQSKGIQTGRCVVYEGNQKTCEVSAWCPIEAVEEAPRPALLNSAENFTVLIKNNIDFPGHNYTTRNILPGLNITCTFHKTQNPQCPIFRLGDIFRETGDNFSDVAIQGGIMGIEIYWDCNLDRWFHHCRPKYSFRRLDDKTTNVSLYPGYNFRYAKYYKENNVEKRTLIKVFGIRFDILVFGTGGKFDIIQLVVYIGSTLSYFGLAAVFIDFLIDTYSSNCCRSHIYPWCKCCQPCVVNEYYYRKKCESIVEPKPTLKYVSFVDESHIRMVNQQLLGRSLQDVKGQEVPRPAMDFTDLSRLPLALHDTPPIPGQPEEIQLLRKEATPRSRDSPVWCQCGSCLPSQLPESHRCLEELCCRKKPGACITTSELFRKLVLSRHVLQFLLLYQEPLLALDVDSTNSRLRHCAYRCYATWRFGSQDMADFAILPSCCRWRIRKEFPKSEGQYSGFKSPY
Test: High throughput P2X7 calcium mobilization assay (Example 4A)
Type: cell-based
Details: SH-SY5Y cells; 50% decrease in fluorescence response of cells exposed to 80 μM BzATP; Table I
How it was run: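 SH-SY5Y cells loaded with 2.3 μM Fluo-4 AM for 1 h at 37 °C, then preincubated 1 h at room temperature with test compound (final 1–2500 nM) in low-sodium sucrose buffer, pH 7.4. Antagonism measured against 80 μM BzATP (about EC50) as peak FLIPR calcium fluorescence over 2 min, corrected by no-agonist background.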

IC50 | SMILES
≤ 2000 nM | Cc1cnc(-n2cc(C(=O)NCC34CC5CC(CC(C5)C3)C4)c(C)n2)nc1C(=O)N1CCC[C@@H](N)C1 [Compound 105, N-(adamantan-1-ylmethyl)-1-(4-{[(3R)-3-aminopiperidin-1-yl]carbonyl}-5-methylpyrimidin-2-yl)-3-methyl-1H-pyrazole-4-carboxamide]
≤ 2000 nM | CC(C)c1nn(-c2ncc(F)cn2)cc1C(=O)NCC12CC3CC(CC(C3)C1)C2 [Compound 127, N-(adamantan-1-ylmethyl)-1-(5-fluoropyrimidin-2-yl)-3-isopropyl-1H-pyrazole-4-carboxamide]
≤ 2000 nM | Cc1cnc(-n2cc(C(=O)NCC34CC5CC(CC(C5)C3)C4)c(C)n2)nc1-c1ccccc1 [Compound 93, N-(adamantan-1-ylmethyl)-3-methyl-1-(5-methyl-4-phenylpyrimidin-2-yl)-1H-pyrazole-4-carboxamide]
≤ 2000 nM | Cc1ccc(C2(CNC(=O)c3sc(-c4ncccn4)nc3C(F)(F)F)CCCCC2)cn1 [Compound 158, N-{[1-(6-methylpyridin-3-yl)cyclohexyl]methyl}-2-pyrimidin-2-yl-4-(trifluoromethyl)-1,3-thiazole-5-carboxamide]
≤ 2000 nM | Cc1cnc(-n2cc(C(=O)NCC34CC5CC(CC(C5)C3)C4)c(C(C)C)n2)nc1N [Compound 100, N-(adamantan-1-ylmethyl)-1-(4-amino-5-methylpyrimidin-2-yl)-3-isopropyl-1H-pyrazole-4-carboxamide]
≤ 2000 nM | Nc1ccnc(-n2cc(C(=O)NCC3(c4cccnc4)CCCCC3)c(C(F)(F)F)n2)n1 [Compound 155, 1-(4-aminopyrimidin-2-yl)-N-[(1-pyridin-3-ylcyclohexyl)methyl]-3-(trifluoromethyl)-1H-pyrazole-4-carboxamide]
≤ 2000 nM | O=C(NCC1(c2cccnc2)CCCCC1)c1sc(-n2nccn2)nc1C(F)(F)F [Compound 309, N-[(1-pyridin-3-ylcyclohexyl)methyl]-2-(2H-1,2,3-triazol-2-yl)-4-(trifluoromethyl)-1,3-thiazole-5-carboxamide]
≤ 2000 nM | Cc1nn(-c2cncc(N)n2)cc1C(=O)NCC12CC3CC(CC(C3)C1)C2 [Compound 43, N-(adamantan-1-ylmethyl)-1-(6-aminopyrazin-2-yl)-3-methyl-1H-pyrazole-4-carboxamide]
≤ 2000 nM | CCc1nc(-c2ncccn2)sc1C(=O)NCC(CC(C)C)c1ccc(Cl)cc1 (stereo not drawn) [Compound 249, N-[2-(4-chlorophenyl)-4-methylpentyl]-4-ethyl-2-pyrimidin-2-yl-1,3-thiazole-5-carboxamide]
≤ 2000 nM | Cc1cnc(-n2cc(C(=O)NCC34CC5CC(CC(C5)C3)C4)c(C)n2)nc1C(=O)N1CCCC1 [Compound 104, N-(adamantan-1 ylmethyl)-3-methyl-1-[5-methyl-4-(pyrrolidin-1-ylcarbonyl)pyrimidin-2-yl]-1H-pyrazole-4-carboxamide]
≤ 2000 nM | O=C(NCC12CC3CC(CC(C3)C1)C2)c1cnc(-c2ccccc2C(F)(F)F)s1 [Compound 67, N-(adamantan-1-ylmethyl)-2-[2-(trifluoromethyl)phenyl]-1,3-thiazole-5-carboxamide]
≤ 2000 nM | Cc1nn(-c2cccc(N)n2)cc1C(=O)NCC12CC3CC(CC(C3)C1)C2 [Compound 59, N-(adamantan-1-ylmethyl)-1-(6-aminopyridin-2-yl)-3-methyl-1H-pyrazole-4-carboxamide]
≤ 2000 nM | O=C(NCC1(c2cccnc2)CCCCC1)c1sc(-c2cccnc2)nc1C(F)(F)F [Compound 164, 2-pyridin-3-yl-N-[(1-pyridin-3-ylcyclohexyl)methyl]-4-(trifluoromethyl)-1,3-thiazole-5-carboxamide]
≤ 2000 nM | O=C(NC1C2CC3CC(C2)CC1C3)c1cn(-c2ncccn2)nc1C(F)(F)F (stereo not drawn) [Compound 217, N-adamantan-2-yl-1-pyrimidin-2-yl-3-(trifluoromethyl)-1H-pyrazole-4-carboxamide]
≤ 2000 nM | Cc1nccnc1-n1cc(C(=O)NCC2(c3cccnc3)CCCCC2)c(C(F)(F)F)n1 [Compound 186, 1-(3-methylpyrazin-2-yl)-N-[(1-pyridin-3-ylcyclohexyl)methyl]-3-(trifluoromethyl)-1H-pyrazole-4-carboxamide]
≤ 2000 nM | Cc1nc(-c2ncccn2)sc1C(=O)NCC(CC(C)C)c1ccc(C(F)(F)F)nc1 (stereo not drawn) [Compound 306, 4-methyl-N-{4-methyl-2-[6-(trifluoromethyl)pyridin-3-yl]pentyl}-2-pyrimidin-2-yl-1,3-thiazole-5-carboxamide]
≤ 2000 nM | COc1ccc(C2(CNC(=O)c3cn(-c4ncccn4)nc3C(F)(F)F)CCCCC2)cc1 [Compound 199, N-{[1-(4-methoxyphenyl)cyclohexyl]methyl}-1-pyrimidin-2-yl-3-(trifluoromethyl)-1H-pyrazole-4-carboxamide]
≤ 2000 nM | Cc1ccc(-n2cc(C(=O)NCC34CC5CC(CC(C5)C3)C4)c(C)n2)nc1 [Compound 97, N-(adamantan-1-ylmethyl)-3-methyl-1-(5-methylpyridin-2-yl)-1H-pyrazole-4-carboxamide]
≤ 2000 nM | CC(C)CC(CNC(=O)c1cn(-c2ncccn2)nc1C(F)(F)F)c1ccc(C(F)(F)F)cc1 (stereo not drawn) [Compound 200, N-{4-methyl-2-[4-(trifluoromethyl)phenyl]pentyl}-1-pyrimidin-2-yl-3-(trifluoromethyl)-1H-pyrazole-4-carboxamide]
≤ 2000 nM | O=C(NCC1(c2cccnc2)CCCCC1)c1cn(-c2ncc(F)cn2)nc1C(F)(F)F [Compound 152, 1-(5-fluoropyrimidin-2-yl)-N-[(1-pyridin-3-ylcyclohexyl)methyl]-3-(trifluoromethyl)-1H-pyrazole-4-carboxamide]
≤ 2000 nM | Nc1nc(-n2cc(C(=O)NCC3(c4ccc(Cl)cc4)CCCCC3)c(C(F)(F)F)n2)ncc1F [Compound 141, 1-(4-amino-5-fluoropyrimidin-2-yl)-N-{[1-(4-chlorophenyl)cyclohexyl]methyl}-3-(trifluoromethyl)-1H-pyrazole-4-carboxamide]
≤ 2000 nM | CC(C)CC(CNC(=O)c1sc(-c2ncccn2)nc1C(F)(F)F)c1ccc(C(F)(F)F)nc1 (stereo not drawn) [Compound 304, N-{4-methyl-2-[6-(trifluoromethyl)pyridin-3-yl]pentyl}-2-pyrimidin-2-yl-4-(trifluoromethyl)-1,3-thiazole-5-carboxamide]
≤ 2000 nM | Cc1nc(-c2ncccn2)sc1C(=O)NCC1(c2cccnc2)CCCCC1 [Compound 289, 4-methyl-N-[(1-pyridin-3-ylcyclohexyl)methyl]-2-pyrimidin-2-yl-1,3-thiazole-5-carboxamide]
≤ 2000 nM | Cc1cnc(-n2cc(C(=O)NCC34CC5CC(CC(C5)C3)C4)c(C(F)(F)F)n2)nc1N [Compound 123, N-(adamantan-1-ylmethyl)-1-(4-amino-5-methylpyrimidin-2-yl)-3-(trifluoromethyl)-1H-pyrazole-4-carboxamide]
≤ 2000 nM | Cc1nn(-c2cnccn2)cc1C(=O)NCC(CC(C)C)c1ccc(C(F)(F)F)cc1 (stereo not drawn) [Compound 174, 3-methyl-N-{4-methyl-2-[4-(trifluoromethyl)phenyl]pentyl}-1-pyrazin-2-yl-1H-pyrazole-4-carboxamide]
≤ 2000 nM | CC(C)CC(CNC(=O)c1sc(-c2ncccn2)nc1C(F)(F)F)c1cccnc1 (stereo not drawn) [Compound 320, N-(4-methyl-2-pyridin-3-ylpentyl)-2-pyrimidin-2-yl-4-(trifluoromethyl)-1,3-thiazole-5-carboxamide]

SMILES | IC50
O=C(NCC12CC3CC(CC(C3)C1)C2)c1cn(-c2ncccn2)nc1C(F)(F)F [Compound 129, N-(adamantan-1-ylmethyl)-1-pyrimidin-2-yl-3-(trifluoromethyl)-1H-pyrazole-4-carboxamide] | ≤ 2000 nM

Same assay, conditions: SH-SY5Y cells; 50% decrease in fluorescence response of cells exposed to 80 μM BzATP; flag after the MS data in Examples 1-2

IC50 | SMILES
≤ 2000 nM | Cc1nc(-c2cccnc2)sc1C(=O)NCC1(c2ccc(F)cc2)CCCCC1 [Compound 34]
≤ 2000 nM | O=C(CC12CC3CC(CC(C3)C1)C2)Nc1cn(-c2ncccn2)nc1C(F)(F)F [Compound 15, 2-Adamantan-1-yl-N-(1-pyrimidin-2-yl-3-trifluoromethyl-1H-pyrazol-4-yl)-acetamide]
≤ 2000 nM | O=C(NCC12CC3CC(CC(C3)C1)C2)c1ccnn1Cc1ccccc1 [Compound 17, N-(Adamantan-1-ylmethyl)-1-benzyl-1H-pyrazole-5-carboxamide]
≤ 2000 nM | Cc1nc(-c2cccnc2)sc1C(=O)NCC(CC(C)C)c1ccc(C(F)(F)F)cc1 (stereo not drawn) [Compound 30]
≤ 2000 nM | Cc1ccc(C2(CNC(=O)c3sc(-c4cccnc4)nc3C)CCCCC2)cn1 [Compound 40, N-{[1-(6-methylpyridin-3-yl)cyclohexyl]methyl}-4-methyl-2-pyridin-3-yl-1-,3-thiazole-5-carboxamide]
≤ 2000 nM | O=C(NCC12CC3CC(CC(C3)C1)C2)c1cn(-c2ncccn2)nc1Cl [Compound 7, N-(Adamantan-1-ylmethyl)-3-chloro-1-pyrimidin-2-yl-1H-pyrazole-4-carboxamide]
